Measured values taken from ChEMBL document CHEMBL2385026, “Identification of C-2 hydroxyethyl imidazopyrrolopyridines as potent JAK1 inhibitors with favorable physicochemical properties and high selectivity over JAK2” (J Med Chem, 2013).
Converted amounts (≈) assume the structure as drawn. Blank lines part the entries; values can stand above or below the compound they belong to.

Legend:
[1] = biological target: T1, Tyrosine-protein kinase JAK2 (Homo sapiens, UniProt O60674); format: cell-based, TF-1
[2] = biological target: T1, Tyrosine-protein kinase JAK2
[3] = Hepatic clearance in human liver microsomes by LC/MS/MS analysis; format: ADME, Microsome
[4] = Hepatic clearance in human hepatocytes after 1 to 4 hrs by LC/MS/MS analysis; format: ADME, cell-based, Liver, Hepatocyte
[5] = Apparent permeability across apical to basolateral side in dog MDCK cells; format: ADME, cell-based, Canis lupus familiaris
[6] = biological target: T2, Tyrosine-protein kinase JAK1 (Homo sapiens, UniProt P23458)
[7] = biological target: T2, Tyrosine-protein kinase JAK1; remark: listed apart in the source
[8] = biological target: T2, Tyrosine-protein kinase JAK1; remark: listed apart in the source
Cytochrome P450 3A4 [9] = biological target: T3, Cytochrome P450 3A4 (Homo sapiens, UniProt P08684); experiment: Reversible inhibition of CYP3A4 in human liver microsomes using testosterone as substrate by LC/MS/MS analysis; format: ADME, Microsome
Cytochrome P450 1A2 = biological target: T4, Cytochrome P450 1A2 (Homo sapiens, UniProt P05177); experiment: Reversible inhibition of CYP1A2 in human liver microsomes using phenacetin as substrate by LC/MS/MS analysis; format: ADME, Microsome
T4 sequence (P05177 whole entry): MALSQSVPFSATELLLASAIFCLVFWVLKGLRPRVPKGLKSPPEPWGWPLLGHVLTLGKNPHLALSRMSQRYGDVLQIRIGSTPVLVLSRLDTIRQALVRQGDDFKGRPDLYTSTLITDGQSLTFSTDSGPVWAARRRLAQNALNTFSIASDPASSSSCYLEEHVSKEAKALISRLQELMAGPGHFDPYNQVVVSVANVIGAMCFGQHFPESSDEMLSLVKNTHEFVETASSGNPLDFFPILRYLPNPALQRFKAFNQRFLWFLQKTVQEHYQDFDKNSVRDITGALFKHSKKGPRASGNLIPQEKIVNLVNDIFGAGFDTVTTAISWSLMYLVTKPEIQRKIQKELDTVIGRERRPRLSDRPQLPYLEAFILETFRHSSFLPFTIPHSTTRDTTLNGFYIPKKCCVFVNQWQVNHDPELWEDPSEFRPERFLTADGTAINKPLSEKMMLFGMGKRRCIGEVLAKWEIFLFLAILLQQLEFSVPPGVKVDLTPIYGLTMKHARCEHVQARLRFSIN

Cytochrome P450 3A4 [10] = biological target: T3, Cytochrome P450 3A4; experiment: Reversible inhibition of CYP3A4 in human liver microsomes using midazolam as substrate by LC/MS/MS analysis; format: ADME, Microsome
[11] = biological target: Tyrosine-protein kinase JAK3 (Homo sapiens, UniProt P52333)
[12] = Oral bioavailability in cynomolgus monkey at 2 mg/kg by LC/MS/MS analysis; format: ADME, organism-based, Macaca fascicularis; details: in vivo
[13] = Oral bioavailability in Beagle dog at 2 mg/kg by LC/MS/MS analysis; format: ADME, organism-based, Canis lupus familiaris; details: Beagle, in vivo
[14] = Oral bioavailability in Sprague-Dawley rat at 2 mg/kg by LC/MS/MS analysis; format: ADME, organism-based; details: Sprague-Dawley, in vivo
[15] = Cmax in cynomolgus monkey at 2 mg/kg, po by LC/MS/MS analysis; format: ADME, organism-based, Macaca fascicularis; parameters: dose 2 mg/kg, route oral; details: in vivo
[16] = Cmax in Beagle dog at 2 mg/kg, po by LC/MS/MS analysis; format: ADME, organism-based, Canis lupus familiaris; parameters: dose 2 mg/kg, route oral; details: in vivo
[17] = AUC in cynomolgus monkey at 2 mg/kg, po by LC/MS/MS analysis; format: ADME, organism-based, Macaca fascicularis; parameters: dose 2 mg/kg, route oral; details: plasma
[18] = AUC in Beagle dog at 2 mg/kg, po by LC/MS/MS analysis; format: ADME, organism-based, Canis lupus familiaris; parameters: dose 2 mg/kg, route oral; details: plasma
[19] = AUC in Sprague-Dawley rat at 2 mg/kg, po by LC/MS/MS analysis; format: ADME, organism-based; parameters: dose 2 mg/kg, route oral; details: plasma
[20] = Half life in cynomolgus monkey at 0.4 mg/kg, iv by LC/MS/MS analysis; format: ADME, organism-based, Macaca fascicularis; parameters: dose 0.4 mg/kg, route intravenous; details: in vivo
[21] = Half life in Beagle dog at 0.4 mg/kg, iv by LC/MS/MS analysis; format: ADME, organism-based, Canis lupus familiaris; parameters: dose 0.4 mg/kg, route intravenous; details: in vivo
[22] = Half life in Sprague-Dawley rat at 0.4 mg/kg, iv by LC/MS/MS analysis; format: ADME, organism-based; parameters: dose 0.4 mg/kg, route intravenous; details: in vivo
[23] = Clearance in Beagle dog at 0.4 mg/kg, iv by LC/MS/MS analysis; format: ADME, organism-based, Canis lupus familiaris; parameters: dose 0.4 mg/kg, route intravenous; details: in vivo
[24] = Clearance in cynomolgus monkey at 0.4 mg/kg, iv by LC/MS/MS analysis; format: ADME, organism-based, Macaca fascicularis; parameters: dose 0.4 mg/kg, route intravenous; details: in vivo
[25] = Clearance in Sprague-Dawley rat at 0.4 mg/kg, iv by LC/MS/MS analysis; format: ADME, organism-based; parameters: dose 0.4 mg/kg, route intravenous; details: in vivo
[26] = Metabolic stability in monkey hepatocytes assessed as hepatic clearance; format: ADME, cell-based, Macaca mulatta, Liver, Hepatocyte; details: rhesus monkey
[27] = Metabolic stability in dog hepatocytes assessed as hepatic clearance; format: ADME, cell-based, Canis lupus familiaris, Liver, Hepatocyte
[28] = Metabolic stability in rat hepatocytes assessed as hepatic clearance; format: ADME, cell-based, Liver, Hepatocyte
[29] = Plasma protein binding in cynomolgus monkey; format: ADME, cell-free, Macaca fascicularis; details: read-out: PPB (converted)
[30] = Plasma protein binding in dog; format: ADME, cell-free, Canis lupus familiaris; details: read-out: PPB (converted)
[31] = Apparent permeability across basolateral to apical side in dog MDCK cells; format: ADME, cell-based, Canis lupus familiaris
[32] = Plasma protein binding in rat; format: ADME, cell-free; details: read-out: PPB (converted)
[33] = Thermodynamic solubility in aqueous buffer at pH 7.4; format: physicochemical; details: read-out: Therm_solubility
[34] = Thermodynamic solubility in aqueous buffer at pH 2; format: physicochemical; details: read-out: Therm_solubility
[35] = Cmax in Sprague-Dawley rat at 2 mg/kg, po by LC/MS/MS analysis; format: ADME, organism-based; parameters: dose 2 mg/kg, route oral; details: in vivo
Cytochrome P450 2C19 = Cytochrome P450 2C19 (Homo sapiens, UniProt P33261)
Cytochrome P450 2D6 = Cytochrome P450 2D6 (Homo sapiens, UniProt P10635)
Cytochrome P450 2C9 = Cytochrome P450 2C9 (Homo sapiens, UniProt P11712)
[36] = biological target: Voltage-gated inwardly rectifying potassium channel KCNH2 (Homo sapiens, UniProt Q12809)
Chain of Voltage-gated inwardly rectifying potassium channel KCNH2 (Q12809 whole entry): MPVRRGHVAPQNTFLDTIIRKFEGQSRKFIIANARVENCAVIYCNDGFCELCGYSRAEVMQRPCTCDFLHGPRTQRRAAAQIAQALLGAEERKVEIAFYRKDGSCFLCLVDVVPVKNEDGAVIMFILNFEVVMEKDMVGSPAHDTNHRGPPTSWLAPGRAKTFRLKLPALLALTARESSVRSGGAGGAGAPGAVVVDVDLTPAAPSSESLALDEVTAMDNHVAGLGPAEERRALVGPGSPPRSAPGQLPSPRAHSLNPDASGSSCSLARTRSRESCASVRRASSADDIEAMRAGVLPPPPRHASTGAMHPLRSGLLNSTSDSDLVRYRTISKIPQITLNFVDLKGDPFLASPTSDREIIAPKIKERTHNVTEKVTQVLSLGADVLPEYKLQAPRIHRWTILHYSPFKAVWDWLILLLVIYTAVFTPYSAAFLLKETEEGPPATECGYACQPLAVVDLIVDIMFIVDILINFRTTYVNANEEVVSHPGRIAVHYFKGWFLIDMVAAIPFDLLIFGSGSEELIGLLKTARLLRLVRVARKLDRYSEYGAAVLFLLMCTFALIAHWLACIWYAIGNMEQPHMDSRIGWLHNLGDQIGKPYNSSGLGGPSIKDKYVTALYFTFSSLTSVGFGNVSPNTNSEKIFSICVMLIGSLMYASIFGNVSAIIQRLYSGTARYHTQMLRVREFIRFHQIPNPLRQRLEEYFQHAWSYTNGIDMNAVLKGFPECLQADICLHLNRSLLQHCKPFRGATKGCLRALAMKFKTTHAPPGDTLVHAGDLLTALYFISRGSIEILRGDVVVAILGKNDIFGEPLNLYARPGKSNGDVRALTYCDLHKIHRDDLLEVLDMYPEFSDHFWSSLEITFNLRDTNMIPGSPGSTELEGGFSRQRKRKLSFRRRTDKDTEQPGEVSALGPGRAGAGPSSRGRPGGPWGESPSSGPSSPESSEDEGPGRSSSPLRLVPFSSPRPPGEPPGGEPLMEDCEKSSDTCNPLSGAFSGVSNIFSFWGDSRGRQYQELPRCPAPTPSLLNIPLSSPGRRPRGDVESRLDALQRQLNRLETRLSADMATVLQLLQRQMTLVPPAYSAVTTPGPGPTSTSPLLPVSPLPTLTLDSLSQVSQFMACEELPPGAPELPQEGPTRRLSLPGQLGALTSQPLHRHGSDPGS

T2 sequence (P23458 whole entry): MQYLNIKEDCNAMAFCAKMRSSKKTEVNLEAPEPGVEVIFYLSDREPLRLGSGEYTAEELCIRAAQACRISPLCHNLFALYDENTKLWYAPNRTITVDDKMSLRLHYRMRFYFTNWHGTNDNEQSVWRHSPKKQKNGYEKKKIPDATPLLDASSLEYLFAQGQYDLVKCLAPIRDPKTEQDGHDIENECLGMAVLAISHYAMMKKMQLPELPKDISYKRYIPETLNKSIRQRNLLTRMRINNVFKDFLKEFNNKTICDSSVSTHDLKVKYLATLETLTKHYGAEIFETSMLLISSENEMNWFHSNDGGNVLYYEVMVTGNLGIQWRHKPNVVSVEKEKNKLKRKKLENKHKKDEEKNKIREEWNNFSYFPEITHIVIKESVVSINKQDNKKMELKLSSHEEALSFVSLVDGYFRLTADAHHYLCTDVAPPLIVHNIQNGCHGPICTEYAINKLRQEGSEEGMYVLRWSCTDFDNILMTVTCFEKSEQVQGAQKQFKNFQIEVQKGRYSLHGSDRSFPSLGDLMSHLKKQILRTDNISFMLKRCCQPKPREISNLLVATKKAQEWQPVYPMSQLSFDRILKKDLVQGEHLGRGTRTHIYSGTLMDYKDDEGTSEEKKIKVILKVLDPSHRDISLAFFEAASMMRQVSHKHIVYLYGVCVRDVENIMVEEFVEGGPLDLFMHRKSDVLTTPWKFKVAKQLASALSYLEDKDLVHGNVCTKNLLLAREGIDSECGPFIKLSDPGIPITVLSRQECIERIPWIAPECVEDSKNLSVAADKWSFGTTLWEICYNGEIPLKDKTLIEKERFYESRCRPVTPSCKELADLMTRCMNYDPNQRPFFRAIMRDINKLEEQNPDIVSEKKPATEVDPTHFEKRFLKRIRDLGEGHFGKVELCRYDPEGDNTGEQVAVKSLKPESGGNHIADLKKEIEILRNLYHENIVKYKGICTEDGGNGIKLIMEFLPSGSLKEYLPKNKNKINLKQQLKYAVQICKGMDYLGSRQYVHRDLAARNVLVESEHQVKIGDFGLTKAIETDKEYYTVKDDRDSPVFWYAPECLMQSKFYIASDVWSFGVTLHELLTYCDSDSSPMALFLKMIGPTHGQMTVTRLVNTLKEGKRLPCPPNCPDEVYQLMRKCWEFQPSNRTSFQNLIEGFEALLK
T1 sequence (O60674 whole entry): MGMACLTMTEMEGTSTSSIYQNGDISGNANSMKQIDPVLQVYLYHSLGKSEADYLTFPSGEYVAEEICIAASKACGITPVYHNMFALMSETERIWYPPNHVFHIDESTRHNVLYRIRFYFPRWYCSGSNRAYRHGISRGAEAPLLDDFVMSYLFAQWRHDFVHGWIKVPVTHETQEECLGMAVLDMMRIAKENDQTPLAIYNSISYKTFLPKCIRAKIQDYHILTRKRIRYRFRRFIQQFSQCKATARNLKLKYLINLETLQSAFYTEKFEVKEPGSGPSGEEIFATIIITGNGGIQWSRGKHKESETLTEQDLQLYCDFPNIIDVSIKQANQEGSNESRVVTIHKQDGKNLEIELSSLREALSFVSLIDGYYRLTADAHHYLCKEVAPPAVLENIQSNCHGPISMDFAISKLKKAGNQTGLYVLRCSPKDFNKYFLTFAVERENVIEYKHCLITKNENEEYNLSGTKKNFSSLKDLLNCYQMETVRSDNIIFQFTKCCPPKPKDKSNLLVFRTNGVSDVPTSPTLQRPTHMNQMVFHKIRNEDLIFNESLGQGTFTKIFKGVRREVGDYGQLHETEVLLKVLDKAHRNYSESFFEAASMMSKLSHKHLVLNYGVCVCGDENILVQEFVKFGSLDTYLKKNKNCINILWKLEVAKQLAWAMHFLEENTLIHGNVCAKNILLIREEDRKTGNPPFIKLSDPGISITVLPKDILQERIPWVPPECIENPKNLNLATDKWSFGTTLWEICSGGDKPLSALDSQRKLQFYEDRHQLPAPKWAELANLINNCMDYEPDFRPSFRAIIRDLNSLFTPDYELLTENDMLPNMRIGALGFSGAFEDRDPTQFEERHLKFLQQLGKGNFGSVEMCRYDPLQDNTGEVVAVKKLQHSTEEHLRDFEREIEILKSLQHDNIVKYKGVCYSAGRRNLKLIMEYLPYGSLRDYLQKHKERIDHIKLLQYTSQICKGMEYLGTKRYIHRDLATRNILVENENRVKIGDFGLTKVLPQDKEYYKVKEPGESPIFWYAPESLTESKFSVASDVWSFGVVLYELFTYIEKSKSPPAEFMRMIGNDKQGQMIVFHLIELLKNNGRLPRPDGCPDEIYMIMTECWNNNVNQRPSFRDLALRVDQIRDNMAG
T3 sequence (P08684 whole entry): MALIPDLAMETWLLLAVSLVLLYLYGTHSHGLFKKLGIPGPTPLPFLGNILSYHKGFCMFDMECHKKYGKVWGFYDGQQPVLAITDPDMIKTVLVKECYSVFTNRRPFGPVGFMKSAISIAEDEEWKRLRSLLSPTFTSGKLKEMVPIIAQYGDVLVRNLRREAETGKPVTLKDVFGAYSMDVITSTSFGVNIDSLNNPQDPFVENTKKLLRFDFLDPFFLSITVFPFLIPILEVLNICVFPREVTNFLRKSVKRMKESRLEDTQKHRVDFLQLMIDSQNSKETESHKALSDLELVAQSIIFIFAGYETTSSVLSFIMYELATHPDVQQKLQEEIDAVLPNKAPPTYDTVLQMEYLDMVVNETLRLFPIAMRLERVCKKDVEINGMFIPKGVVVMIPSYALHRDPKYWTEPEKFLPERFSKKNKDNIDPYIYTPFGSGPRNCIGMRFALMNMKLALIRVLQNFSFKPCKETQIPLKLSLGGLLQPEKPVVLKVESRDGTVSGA
Chain of Cytochrome P450 2C9 (P11712 whole entry): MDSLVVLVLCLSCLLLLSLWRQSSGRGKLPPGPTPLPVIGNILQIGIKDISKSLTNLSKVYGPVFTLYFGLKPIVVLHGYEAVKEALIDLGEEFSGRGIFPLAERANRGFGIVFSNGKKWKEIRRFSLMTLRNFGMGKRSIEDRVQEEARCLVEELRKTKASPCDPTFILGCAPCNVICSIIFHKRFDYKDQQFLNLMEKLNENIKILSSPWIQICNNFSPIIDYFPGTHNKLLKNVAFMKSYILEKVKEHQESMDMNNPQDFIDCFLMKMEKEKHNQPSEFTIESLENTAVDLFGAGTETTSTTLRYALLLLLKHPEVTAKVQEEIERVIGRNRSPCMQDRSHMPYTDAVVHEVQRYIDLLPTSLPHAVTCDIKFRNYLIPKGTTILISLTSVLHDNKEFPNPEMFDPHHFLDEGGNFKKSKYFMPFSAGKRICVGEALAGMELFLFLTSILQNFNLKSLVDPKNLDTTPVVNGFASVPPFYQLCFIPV
Chain of Cytochrome P450 2C19 (P33261 whole entry): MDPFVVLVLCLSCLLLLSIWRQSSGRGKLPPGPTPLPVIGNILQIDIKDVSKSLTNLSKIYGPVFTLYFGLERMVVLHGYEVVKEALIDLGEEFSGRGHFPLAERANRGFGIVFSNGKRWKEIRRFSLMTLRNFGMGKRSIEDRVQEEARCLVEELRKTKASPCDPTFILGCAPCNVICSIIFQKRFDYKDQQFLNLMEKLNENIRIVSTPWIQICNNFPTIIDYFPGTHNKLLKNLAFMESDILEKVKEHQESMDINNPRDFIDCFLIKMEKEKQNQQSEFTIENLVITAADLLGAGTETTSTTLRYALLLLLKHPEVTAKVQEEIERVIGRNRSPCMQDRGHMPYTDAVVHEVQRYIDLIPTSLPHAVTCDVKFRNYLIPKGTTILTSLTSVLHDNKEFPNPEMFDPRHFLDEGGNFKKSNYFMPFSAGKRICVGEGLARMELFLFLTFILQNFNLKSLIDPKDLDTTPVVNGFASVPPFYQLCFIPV

EC50 [1]: 5300 nM
Ki [2]: 90 nM
SMILES: C[C@H](O)c1nc2cnc3[nH]ccc3c2n1C1CCCCC1

CLhep predicted [3]: 5.6 mL/min/kg
CLhep predicted [4]: 3.5 mL/min/kg
Papp A→B [5]: 10 ×10⁻⁶ cm/s
EC50 [6]: 82 nM
EC50 [7]: 74 nM
Ki [8]: 1.2 nM
SMILES: C[C@@H](O)c1nc2cnc3[nH]ccc3c2n1[C@H]1CC[C@H](NCC(F)(F)F)C1

CLhep predicted [3]: 1.8 mL/min/kg
CLhep predicted [4]: 6.8 mL/min/kg
Papp A→B [5]: 16 ×10⁻⁶ cm/s
EC50 [6]: 220 nM
EC50 [7]: 69 nM
Ki [8]: 1.6 nM
SMILES: OC[C@@H](O)c1nc2cnc3[nH]ccc3c2n1C1CCCCC1

CLhep predicted [3]: 4.3 mL/min/kg
CLhep predicted [4]: 5.6 mL/min/kg
Papp A→B [5]: 4.2 ×10⁻⁶ cm/s
EC50 [6]: 78 nM
EC50 [7]: 49 nM
Ki [8]: 0.9 nM
SMILES: C[C@@H](O)c1nc2cnc3[nH]ccc3c2n1[C@H]1CC[C@@H](C#N)CC1

CLhep predicted [3]: 2.1 mL/min/kg
EC50 [7]: 380 nM
Ki [8]: 12 nM
SMILES: C[C@@H](O)c1nc2cnc3[nH]ccc3c2n1[C@H]1CC[C@@H](O)CC1

CLhep predicted [3]: 5.6 mL/min/kg
CLhep predicted [4]: 19 mL/min/kg
Papp A→B [5]: 24 ×10⁻⁶ cm/s
EC50 [1]: 730 nM
Ki [2]: 8.3 nM
EC50 [6]: 313 nM
EC50 [7]: 64 nM
Ki [8]: 1.1 nM
SMILES: OCc1nc2cnc3[nH]ccc3c2n1C1CCCCC1

CLhep predicted [3]: 1 mL/min/kg
Papp A→B [5]: 0.2 ×10⁻⁶ cm/s
EC50 [7]: 8200 nM
Ki [8]: 5.2 nM
SMILES: C[C@@H](O)c1nc2cnc3[nH]ccc3c2n1[C@@H]1CCCN(C(=O)CC#N)C1

CLhep predicted [3]: 5.3 mL/min/kg
CLhep predicted [4]: 17 mL/min/kg
Papp A→B [5]: 23 ×10⁻⁶ cm/s
EC50 [1]: 1500 nM
Ki [2]: 18 nM
EC50 [6]: 1500 nM
EC50 [7]: 130 nM
Ki [8]: 3.5 nM
SMILES: OCCc1nc2cnc3[nH]ccc3c2n1C1CCCCC1

CLhep predicted [3]: 4.6 mL/min/kg
Ki [8]: 68 nM
SMILES: C[C@@H](O)c1nc2cnc3[nH]ccc3c2n1[C@@H]1CCCOC1

EC50 [7]: 320 nM
Ki [8]: 7.2 nM
SMILES: OC[C@H](O)c1nc2cnc3[nH]ccc3c2n1C1CCCCC1

CLhep predicted [3]: 3.6 mL/min/kg
CLhep predicted [4]: 1.1 mL/min/kg
Papp A→B [5]: 2.8 ×10⁻⁶ cm/s
EC50 [6]: 62 nM
EC50 [7]: 57 nM
Ki [8]: 1.1 nM
SMILES: C[C@@H](O)c1nc2cnc3[nH]ccc3c2n1[C@H]1CC[C@H](NCC(F)F)CC1

IC50 (Cytochrome P450 3A4 [9]): > 10000 nM
IC50 (Cytochrome P450 1A2): > 10000 nM
IC50 (Cytochrome P450 3A4 [10]): 6700 nM
Ki [11]: 7.8 nM
bioavailability [12]: 8%
bioavailability [13]: 125%
bioavailability [14]: 50%
Cmax [15]: 70 nM
Cmax [16]: 1300 nM
AUC [17]: 0.26 µM·h
AUC [18]: 4.3 µM·h
AUC [19]: 0.42 µM·h
half-life [20]: 48 min
half-life [21]: 78 min
half-life [22]: 36 min
clearance [23]: 29 mL/min/kg
clearance [24]: 29 mL/min/kg
clearance [25]: 126 mL/min/kg
CLhep predicted [26]: 36 mL/min/kg
CLhep predicted [27]: 11 mL/min/kg
CLhep predicted [28]: 28 mL/min/kg
fraction unbound [29]: 0.24
fraction unbound [30]: 0.34
Papp B→A [31]: 9.3 ×10⁻⁶ cm/s
fraction unbound [32]: 0.32
solubility thermodynamic [33]: 16 µM (≈ 5.4 µg/mL)
solubility thermodynamic [34]: > 4000 µM
CLhep predicted [3]: 5.2 mL/min/kg
CLhep predicted [4]: 5.7 mL/min/kg
Papp A→B [5]: 4.7 ×10⁻⁶ cm/s
Cmax [35]: 220 nM
IC50 (Cytochrome P450 2C19): > 10000 nM
IC50 (Cytochrome P450 2D6): > 10000 nM
IC50 (Cytochrome P450 2C9): > 10000 nM
SMILES: C[C@@H](O)c1nc2cnc3[nH]ccc3c2n1[C@H]1CC[C@H](CCC#N)CC1
IC50 [36]: 20000 nM
